Measured values taken from article doi:10.1101/2024.08.30.610474v2 (biorxiv, 2025).

Tested on: honeyeater HK3 (hexokinase 3)
Assay: hexokinase activity assay kit
Assay type: biochemical, Phylidonyris novaehollandiae
Details: 25 °C; 200 nM enzyme; glucose 0.009375-1 mM; substrate inhibition

OC[C@H]1OC(O)[C@H](O)[C@@H](O)[C@@H]1O (stereo partly shown) [glucose]
Km: 65.9 µM
